Type in all cases: cell-based
The target in assay [1] is T1, Transient receptor potential cation channel subfamily V member 3 (Homo sapiens) (UniProt Q8NET8).
T1 sequence (whole entry): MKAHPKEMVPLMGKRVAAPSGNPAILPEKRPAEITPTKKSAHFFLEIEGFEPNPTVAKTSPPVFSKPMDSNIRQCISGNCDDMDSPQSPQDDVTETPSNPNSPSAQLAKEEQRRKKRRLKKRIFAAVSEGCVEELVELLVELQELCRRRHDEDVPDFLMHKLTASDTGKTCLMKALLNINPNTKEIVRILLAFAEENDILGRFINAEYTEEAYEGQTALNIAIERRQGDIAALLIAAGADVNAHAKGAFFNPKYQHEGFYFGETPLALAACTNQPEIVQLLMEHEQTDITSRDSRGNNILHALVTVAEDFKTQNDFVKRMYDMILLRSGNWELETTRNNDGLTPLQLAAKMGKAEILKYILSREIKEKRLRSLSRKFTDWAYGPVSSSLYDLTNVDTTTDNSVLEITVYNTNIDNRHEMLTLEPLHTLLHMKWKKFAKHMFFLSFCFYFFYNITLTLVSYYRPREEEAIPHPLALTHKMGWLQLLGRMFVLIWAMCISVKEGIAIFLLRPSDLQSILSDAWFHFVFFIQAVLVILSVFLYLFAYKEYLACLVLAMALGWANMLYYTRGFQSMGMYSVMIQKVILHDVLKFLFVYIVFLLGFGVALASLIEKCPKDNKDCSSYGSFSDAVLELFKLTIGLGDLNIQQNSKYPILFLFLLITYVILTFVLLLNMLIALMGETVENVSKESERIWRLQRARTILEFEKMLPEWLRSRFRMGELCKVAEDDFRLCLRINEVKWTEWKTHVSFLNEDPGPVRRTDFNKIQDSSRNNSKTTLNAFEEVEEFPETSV
In words: Antagonist activity at human TRPV3 channel expressed in HEK293T cells assessed as inhibition of 2-APB induced channel current at 50 uM by whole cell patch clamp recordings relative to control. (In patch-clamp work, channel activity is measured electrically.)

Assay [2] has as its target T2, Transient receptor potential cation channel subfamily V member 3 (Homo sapiens, UniProt Q8NET8).
T2 sequence (Q8NET8 whole entry): T1 sequence (whole entry)
Description: Antagonist activity at human TRPV3 channel expressed in HEK293T cells assessed as inhibition of 2-APB induced channel current by whole cell patch clamp recordings.

The target in assay [3] is Transient receptor potential cation channel subfamily V member 1 (Homo sapiens) (UniProt Q8NER1). In words: Antagonist activity at TRPV1 (unknown origin) expressed in HEK293T cells assessed as inhibition of agonist induced channel current by whole-cell patch clamp recordings.
Sequence of Transient receptor potential cation channel subfamily V member 1 (Homo sapiens) (Q8NER1 whole entry): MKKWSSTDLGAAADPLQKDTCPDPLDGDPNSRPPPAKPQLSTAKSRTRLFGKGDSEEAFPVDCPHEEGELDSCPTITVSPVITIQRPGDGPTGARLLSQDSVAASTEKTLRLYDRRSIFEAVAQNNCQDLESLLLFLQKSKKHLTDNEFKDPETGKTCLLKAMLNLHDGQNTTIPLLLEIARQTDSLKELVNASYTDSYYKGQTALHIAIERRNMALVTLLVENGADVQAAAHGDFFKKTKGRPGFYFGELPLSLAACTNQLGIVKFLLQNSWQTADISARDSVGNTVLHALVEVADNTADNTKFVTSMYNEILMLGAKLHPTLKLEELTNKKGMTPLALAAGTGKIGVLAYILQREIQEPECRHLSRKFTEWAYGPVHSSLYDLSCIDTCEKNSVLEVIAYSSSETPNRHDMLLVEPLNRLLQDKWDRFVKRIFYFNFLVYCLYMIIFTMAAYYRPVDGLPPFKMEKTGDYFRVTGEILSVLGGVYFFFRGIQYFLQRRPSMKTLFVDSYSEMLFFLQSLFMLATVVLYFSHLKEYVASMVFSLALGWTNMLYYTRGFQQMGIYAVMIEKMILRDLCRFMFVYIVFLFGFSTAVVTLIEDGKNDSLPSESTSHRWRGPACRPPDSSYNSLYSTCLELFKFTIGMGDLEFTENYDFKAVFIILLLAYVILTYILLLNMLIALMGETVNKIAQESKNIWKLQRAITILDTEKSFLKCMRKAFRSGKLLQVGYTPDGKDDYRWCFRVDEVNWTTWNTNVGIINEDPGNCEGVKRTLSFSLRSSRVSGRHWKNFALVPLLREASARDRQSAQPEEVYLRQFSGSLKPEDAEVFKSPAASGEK
The target in assay [4] is Transient receptor potential cation channel subfamily M member 8 (Homo sapiens) (UniProt Q7Z2W7). Description: Antagonist activity at TRPM8 (unknown origin) expressed in HEK293T cells assessed as inhibition of agonist induced channel current by whole-cell patch clamp recordings.
Sequence of Transient receptor potential cation channel subfamily M member 8 (Homo sapiens) (Q7Z2W7 whole entry, looked up): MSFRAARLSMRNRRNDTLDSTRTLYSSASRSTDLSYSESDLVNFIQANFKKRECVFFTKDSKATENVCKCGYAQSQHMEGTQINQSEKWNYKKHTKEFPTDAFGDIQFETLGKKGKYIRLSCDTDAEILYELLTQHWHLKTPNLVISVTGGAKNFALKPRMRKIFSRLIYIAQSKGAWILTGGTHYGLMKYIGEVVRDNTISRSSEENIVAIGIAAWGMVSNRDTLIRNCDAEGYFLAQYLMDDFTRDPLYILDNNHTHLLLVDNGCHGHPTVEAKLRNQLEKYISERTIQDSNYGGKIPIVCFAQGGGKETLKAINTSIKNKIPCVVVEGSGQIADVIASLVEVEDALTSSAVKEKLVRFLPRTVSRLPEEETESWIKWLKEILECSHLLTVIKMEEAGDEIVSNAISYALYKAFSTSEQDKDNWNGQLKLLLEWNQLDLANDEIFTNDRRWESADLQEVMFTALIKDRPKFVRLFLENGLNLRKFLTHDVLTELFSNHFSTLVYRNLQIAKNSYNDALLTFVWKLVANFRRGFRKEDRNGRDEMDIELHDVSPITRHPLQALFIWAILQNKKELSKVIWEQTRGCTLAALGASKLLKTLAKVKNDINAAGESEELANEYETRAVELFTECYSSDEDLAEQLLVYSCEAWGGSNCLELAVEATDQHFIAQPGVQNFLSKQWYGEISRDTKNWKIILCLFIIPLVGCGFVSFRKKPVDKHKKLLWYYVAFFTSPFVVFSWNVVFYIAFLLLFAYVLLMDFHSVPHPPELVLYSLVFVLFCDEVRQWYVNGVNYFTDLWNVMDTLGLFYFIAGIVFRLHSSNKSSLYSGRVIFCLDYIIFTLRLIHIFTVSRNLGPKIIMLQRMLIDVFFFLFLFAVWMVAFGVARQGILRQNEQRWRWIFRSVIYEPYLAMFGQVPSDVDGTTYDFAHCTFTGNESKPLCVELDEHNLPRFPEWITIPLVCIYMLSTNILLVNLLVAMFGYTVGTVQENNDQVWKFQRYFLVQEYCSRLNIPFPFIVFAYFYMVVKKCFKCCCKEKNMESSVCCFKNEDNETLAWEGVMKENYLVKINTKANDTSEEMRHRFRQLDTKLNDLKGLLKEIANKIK
The target of assay [5] is Transient receptor potential cation channel subfamily V member 4 (Homo sapiens) (UniProt Q9HBA0). In words: Antagonist activity at TRPV4 (unknown origin) expressed in HEK293T cells assessed as inhibition of agonist induced channel current by whole-cell patch clamp recordings.
Sequence of Transient receptor potential cation channel subfamily V member 4 (Homo sapiens) (Q9HBA0 whole entry): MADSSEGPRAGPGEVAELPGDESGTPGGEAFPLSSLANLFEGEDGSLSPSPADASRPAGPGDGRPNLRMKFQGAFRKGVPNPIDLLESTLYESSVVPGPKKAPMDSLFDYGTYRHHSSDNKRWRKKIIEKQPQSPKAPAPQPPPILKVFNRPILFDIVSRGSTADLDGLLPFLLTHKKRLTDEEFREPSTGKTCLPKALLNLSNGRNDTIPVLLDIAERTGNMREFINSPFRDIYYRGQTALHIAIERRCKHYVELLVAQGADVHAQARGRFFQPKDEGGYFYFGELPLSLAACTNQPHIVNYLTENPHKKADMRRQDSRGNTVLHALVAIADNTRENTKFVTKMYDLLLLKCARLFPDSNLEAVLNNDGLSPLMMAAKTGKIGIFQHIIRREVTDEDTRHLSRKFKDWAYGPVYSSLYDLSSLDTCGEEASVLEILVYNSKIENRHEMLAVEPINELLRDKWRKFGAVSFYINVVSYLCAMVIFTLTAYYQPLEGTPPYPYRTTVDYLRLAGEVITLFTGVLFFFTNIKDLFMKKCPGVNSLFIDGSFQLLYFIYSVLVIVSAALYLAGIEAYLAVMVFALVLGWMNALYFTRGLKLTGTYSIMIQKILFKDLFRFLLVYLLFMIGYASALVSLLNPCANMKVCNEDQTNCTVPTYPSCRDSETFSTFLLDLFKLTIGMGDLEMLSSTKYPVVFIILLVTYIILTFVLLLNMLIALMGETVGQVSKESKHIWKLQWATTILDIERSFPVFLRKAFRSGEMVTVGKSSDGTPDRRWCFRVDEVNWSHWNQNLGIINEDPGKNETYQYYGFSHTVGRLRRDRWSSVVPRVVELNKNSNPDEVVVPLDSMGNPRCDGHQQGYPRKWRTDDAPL
The target in assay [6] is Transient receptor potential cation channel subfamily A member 1 (Homo sapiens) (UniProt O75762). Description: Antagonist activity at TRPA1 (unknown origin) expressed in HEK293T cells assessed as inhibition of agonist induced channel current by whole-cell patch clamp recordings.
Sequence of Transient receptor potential cation channel subfamily A member 1 (Homo sapiens) (O75762 whole entry): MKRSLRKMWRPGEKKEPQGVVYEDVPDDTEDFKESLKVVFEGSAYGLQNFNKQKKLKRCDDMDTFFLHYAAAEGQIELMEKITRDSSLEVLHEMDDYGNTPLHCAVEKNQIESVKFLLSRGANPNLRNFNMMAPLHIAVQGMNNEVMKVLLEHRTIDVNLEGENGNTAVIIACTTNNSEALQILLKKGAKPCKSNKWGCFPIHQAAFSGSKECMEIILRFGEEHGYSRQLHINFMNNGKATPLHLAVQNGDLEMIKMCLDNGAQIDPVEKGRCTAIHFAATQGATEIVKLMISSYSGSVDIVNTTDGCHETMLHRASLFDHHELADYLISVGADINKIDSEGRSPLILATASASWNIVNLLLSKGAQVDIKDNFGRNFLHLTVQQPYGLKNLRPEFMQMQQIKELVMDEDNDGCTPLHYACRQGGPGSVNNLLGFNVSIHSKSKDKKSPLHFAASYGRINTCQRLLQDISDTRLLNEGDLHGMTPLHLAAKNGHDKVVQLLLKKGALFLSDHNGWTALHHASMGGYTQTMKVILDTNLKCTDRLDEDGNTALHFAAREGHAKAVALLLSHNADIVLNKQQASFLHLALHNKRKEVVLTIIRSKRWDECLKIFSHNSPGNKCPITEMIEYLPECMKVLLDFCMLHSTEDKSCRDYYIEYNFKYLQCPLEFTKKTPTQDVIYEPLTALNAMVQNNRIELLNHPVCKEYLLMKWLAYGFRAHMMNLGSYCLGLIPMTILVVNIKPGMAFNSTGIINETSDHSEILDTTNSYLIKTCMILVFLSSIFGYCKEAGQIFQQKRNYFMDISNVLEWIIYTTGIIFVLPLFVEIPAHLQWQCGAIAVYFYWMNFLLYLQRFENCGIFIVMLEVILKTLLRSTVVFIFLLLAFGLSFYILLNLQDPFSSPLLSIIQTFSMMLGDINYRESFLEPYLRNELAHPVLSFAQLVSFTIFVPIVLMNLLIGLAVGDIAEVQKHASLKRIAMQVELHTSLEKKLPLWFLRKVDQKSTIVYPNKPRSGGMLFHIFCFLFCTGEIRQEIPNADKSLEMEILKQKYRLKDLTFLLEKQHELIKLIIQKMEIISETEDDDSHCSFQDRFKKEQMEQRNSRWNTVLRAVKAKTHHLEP

Calls of active or inactive are those of the source. No cut-off for these calls is given here.

A word on the inhibition: it is the drop in the measured response relative to a control, in per cent. Regarding `Cc1ccc(-c2cc(=O)c3c(O)cc(O)cc3o2)cc1`, in assay [1], the inhibition was 10.3%. On the same count and under the same terms, as for `O=c1cc(-c2ccc(O)cc2F)oc2cc(O)cc(O)c12`, the figure is 13%.

In the case of `O=c1cc(-c2ccc(O)cc2Br)oc2cc(O)cc(O)c12`, the inhibition in assay [1] (filed as antagonist) amounted to 51.7%.

For the compound `O=c1cc(-c2ccc(Br)cc2)oc2cc(O)ccc12`, the inhibition in assay [1] was 1.94%.

Turning to `O=c1cc(-c2cccc(O)c2)oc2c(O)c(O)ccc12`, the inhibition in assay [1] came to 31.4%. On to `COc1ccc(-c2cc(=O)c3c(O)cccc3o2)cc1`, for which the inhibition in assay [1] came to 4.68%. What is called IC50 is the concentration at which inhibition is half-maximal. Take `C[C@@H]1O[C@@H](O[C@@H]2[C@@H](O)[C@H](OCCc3ccc(O)c(O)c3)O[C@H](CO[C@@H]3OC[C@](O)(CO)[C@H]3O)[C@H]2OC(=O)/C=C/c2ccc(O)c(O)c2)[C@H](O)[C@H](O)[C@H]1O`: in assay [1] (filed as antagonist), the inhibition was 58.8%. In addition, the half-maximal inhibitory concentration (IC50) in assay [2] came to 10.8 µM.

Consider `O=c1cc(-c2ccc(F)cc2)oc2cc(O)cc(O)c12`, for which, in assay [1], the inhibition came out at 21.2%.

For `O=c1cc(-c2ccc(OC(F)(F)F)cc2)oc2cc(O)cc(O)c12`, the inhibition in assay [1] is 3.81%.

With `COCOc1cc(OCOC)c2c(c1)OC(c1ccc(F)cc1)CC2=O` (stereo not drawn), the inhibition in assay [1] turned out to be 5.55%. Same read-out and setting: then `COc1ccc(C2CC(=O)c3c(O)cccc3O2)cc1` (stereo not drawn), with 4.96%.

Take `COc1ccc(-c2cc(=O)c3c(O)cc(O)cc3o2)cc1` [ACACETIN]: the result in assay [3], in assay [4], in assay [5] and in assay [6] was inactive. In addition, in assay [1] (filed as antagonist), the inhibition came to 61.8%. Further, in assay [2], the concentration for half-maximal inhibition (IC50) was 0.62 µM.

These data come from ChEMBL document CHEMBL5356963, “Discovery of flavone-derivatives as the new skeleton of transient receptor potential vanilloid 3 channel antagonists” (Bioorg Med Chem Lett, 2024).
